Measurements reported in patent US7301024B2, “Crystalline forms of gatifloxacin and processes for preparation” (Teva Pharmaceutical Industries Ltd., priority 2002, dated 2007).

Columns and labels:
[1] = solid-state form after storage at 40° C. and 75% relative humidity, analyzed by XRD; assay type: physicochemical; details: 3 months
Experimental: As used in connection with the present invention, x-ray diffraction refers to x-ray diffraction by the powder diffraction technique (PXRD). X-ray powder diffraction analysis was performed using a Scintag powder diffractometer with variable goniometer, a Cu source, and a solid state detector. A standard round aluminum sample holder with zero background quartz plate was used. Samples were scanned from 2° to 40° 2θ at 3° per minute. Reflections are reported as peak maxima in the Intensity vs. 2θ plots, and are subject to the normal experimental error (uncertainty). Wet samples were promptly analyzed “as is,” i.e., without drying or grinding prior to the analysis.
Gatifloxacin form CH2 can also be made by heating form Ω to between about 25° C. and about 50° C. at a relative humidity of about 60% to about 80%, preferably for at least about one month. Gatifloxacin so formed is a mixture of form Ω and form CH2.
4. Gatifloxacin form Ω (3 g) was heated to 40° C. at 75% of relative humidity for 3 months.

[2] = compared with hemihydrate; cited from earlier work
[3] = sesquihydrate compared with hemihydrate; cited from earlier work
[4] = compared with the other crystalline forms of U.S. Pat. No. 6,413,969; cited from earlier work
[5] = room temperature; compared with the other crystalline forms of U.S. Pat. No. 6,413,969; cited from earlier work

Q: With `COc1c(N2CCNC(C)C2)c(F)cc2c(=O)c(C(=O)O)cn(C3CC3)c12` (racemic) [form Ω, (±)-1-cyclopropyl-6-fluoro-1,4-dihydro-8-methoxy-7-(3-methyl-1-piperazinyl)-4-oxo-3-quinolinecarboxylic acid] as the compound, how does the “crystalline form found by XRD after storage” value [1] read?
A: mixture of gatifloxacin form Ω and form CH2

Q: Which stability in manufacturing [2] does the source give for `COc1c(N2CCNC(C)C2)c(F)cc2c(=O)c(C(=O)O)cn(C3CC3)c12` (racemic) [sesquihydrate, (±)-1-cyclopropyl-6-fluoro-1,4-dihydro-8-methoxy-7-(3-methyl-1-piperazinyl)-4-oxo-3-quinolinecarboxylic acid] here?
A: more stable in manufacturing

Q: What about the hygroscopicity [3] of the same compound?
A: less hygroscopic

Q: With `COc1c(N2CCNC(C)C2)c(F)cc2c(=O)c(C(=O)O)cn(C3CC3)c12` (racemic) [hemihydrate, (±)-1-cyclopropyl-6-fluoro-1,4-dihydro-8-methoxy-7-(3-methyl-1-piperazinyl)-4-oxo-3-quinolinecarboxylic acid] as the compound, how does the hygroscopicity [3] read?
A: hygroscopic

Q: With `COc1c(N2CCNC(C)C2)c(F)cc2c(=O)c(C(=O)O)cn(C3CC3)c12` (racemic) [pentahydrate, (±)-1-cyclopropyl-6-fluoro-1,4-dihydro-8-methoxy-7-(3-methyl-1-piperazinyl)-4-oxo-3-quinolinecarboxylic acid] as the compound, how does the thermodynamic stability [4] read?
A: most thermodynamically stable form

Q: And the aqueous solubility [5]?
A: lowest
